In ChEMBL document CHEMBL1201862, “PubChem BioAssay data set” (2004):
Calls of active or inactive are those of the source.

Key:
[1] = molecular target: T1, Tyrosine-protein phosphatase non-receptor type 7 (Homo sapiens, UniProt P35236); type: functional
T1 sequence (P35236 whole entry): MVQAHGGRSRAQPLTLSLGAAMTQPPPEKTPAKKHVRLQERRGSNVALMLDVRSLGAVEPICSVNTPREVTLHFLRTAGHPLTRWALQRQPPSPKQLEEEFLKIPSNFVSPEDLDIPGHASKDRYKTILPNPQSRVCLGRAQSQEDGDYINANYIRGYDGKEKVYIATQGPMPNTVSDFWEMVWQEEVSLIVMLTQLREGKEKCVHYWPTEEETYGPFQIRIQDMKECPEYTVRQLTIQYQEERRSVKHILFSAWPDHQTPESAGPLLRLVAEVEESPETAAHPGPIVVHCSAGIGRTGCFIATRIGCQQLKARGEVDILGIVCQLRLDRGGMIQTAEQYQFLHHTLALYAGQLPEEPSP

Bcl-2-like protein 10 = molecular target: T2, Bcl-2-like protein 10 (Homo sapiens, UniProt Q9HD36); assay: Bcl-B/TR3 peptide binding disruption – biochemical, fluorescence polarization, FITC-TR3 peptide, selectivity assay for Bfl-1 inhibitor project, primary screen (AID 748);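 note: fluorescence polarization from a fluorescein-labelled TR3 peptide binding purified Bcl-B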
T2 sequence (Q9HD36 whole entry): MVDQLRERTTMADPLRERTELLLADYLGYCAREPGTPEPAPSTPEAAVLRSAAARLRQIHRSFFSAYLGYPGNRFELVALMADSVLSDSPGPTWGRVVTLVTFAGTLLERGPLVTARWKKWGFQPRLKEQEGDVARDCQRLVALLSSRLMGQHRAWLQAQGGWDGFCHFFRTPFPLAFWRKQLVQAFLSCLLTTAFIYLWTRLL

[2] = molecular target: T3, Dual specificity protein phosphatase 6 (Rattus norvegicus, UniProt Q64346)
T3 sequence (Q64346 whole entry): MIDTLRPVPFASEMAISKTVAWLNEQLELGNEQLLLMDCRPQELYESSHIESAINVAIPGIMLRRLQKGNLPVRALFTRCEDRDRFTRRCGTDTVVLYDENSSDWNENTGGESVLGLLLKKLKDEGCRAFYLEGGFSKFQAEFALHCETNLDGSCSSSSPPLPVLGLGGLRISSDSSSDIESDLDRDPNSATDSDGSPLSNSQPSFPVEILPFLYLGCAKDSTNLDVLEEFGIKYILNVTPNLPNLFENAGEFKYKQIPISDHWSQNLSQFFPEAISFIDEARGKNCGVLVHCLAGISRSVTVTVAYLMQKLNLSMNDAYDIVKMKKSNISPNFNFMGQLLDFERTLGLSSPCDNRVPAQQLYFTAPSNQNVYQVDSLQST

[3] = molecular target: T4, Carboxy-terminal domain RNA polymerase II polypeptide A small phosphatase 1 (Homo sapiens, UniProt Q9GZU7); assay: CTDSP1 inhibitors, concentration-response, biochemical, absorbance readout, ultra-high-throughput screen actives (AID 540297); type: functional
T4 sequence (Q9GZU7 whole entry): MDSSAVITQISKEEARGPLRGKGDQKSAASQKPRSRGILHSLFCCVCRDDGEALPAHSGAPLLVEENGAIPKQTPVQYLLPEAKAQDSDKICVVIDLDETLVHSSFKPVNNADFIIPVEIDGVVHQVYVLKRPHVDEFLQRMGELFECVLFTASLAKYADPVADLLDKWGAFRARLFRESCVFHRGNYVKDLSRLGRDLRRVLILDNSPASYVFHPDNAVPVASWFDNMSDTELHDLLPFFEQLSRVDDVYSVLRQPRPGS

Estrogen receptor beta [4] = molecular target: T5, Estrogen receptor beta (Homo sapiens, UniProt Q92731);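 note: recombinant ER-beta bound to coactivator SRC1 peptide in presence of estradiol agonist; inhibitors block coactivator peptide binding and lower the FRET signal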
T5 sequence (Q92731 whole entry): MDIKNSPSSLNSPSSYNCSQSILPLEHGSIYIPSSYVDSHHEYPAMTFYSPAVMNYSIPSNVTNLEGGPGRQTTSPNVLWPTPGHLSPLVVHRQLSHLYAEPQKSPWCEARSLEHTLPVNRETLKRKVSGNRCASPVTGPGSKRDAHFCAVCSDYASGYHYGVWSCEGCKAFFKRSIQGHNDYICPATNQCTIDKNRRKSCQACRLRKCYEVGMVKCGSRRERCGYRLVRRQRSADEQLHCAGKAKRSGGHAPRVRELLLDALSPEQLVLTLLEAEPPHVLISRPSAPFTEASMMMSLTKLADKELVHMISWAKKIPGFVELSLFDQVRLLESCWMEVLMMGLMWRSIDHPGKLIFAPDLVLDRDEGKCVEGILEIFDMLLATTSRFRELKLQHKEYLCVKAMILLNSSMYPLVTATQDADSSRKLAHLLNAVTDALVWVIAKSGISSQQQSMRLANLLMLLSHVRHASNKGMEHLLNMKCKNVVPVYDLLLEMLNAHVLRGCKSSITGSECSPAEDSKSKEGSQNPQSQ

[5] = molecular target: T3, Dual specificity protein phosphatase 6; type: functional
Estrogen receptor beta [6] = molecular target: T5, Estrogen receptor beta; assay: blockers of SRC-3 recruitment to ERβ – biochemical, ELISA, streptavidin-HRP readout, orthogonal assay, confirmation (AID 1060)
[7] = molecular target: Glyceraldehyde-3-phosphate dehydrogenase (Homo sapiens, UniProt P04406)
Glyceraldehyde-3-phosphate dehydrogenase, sequence (P04406 whole entry): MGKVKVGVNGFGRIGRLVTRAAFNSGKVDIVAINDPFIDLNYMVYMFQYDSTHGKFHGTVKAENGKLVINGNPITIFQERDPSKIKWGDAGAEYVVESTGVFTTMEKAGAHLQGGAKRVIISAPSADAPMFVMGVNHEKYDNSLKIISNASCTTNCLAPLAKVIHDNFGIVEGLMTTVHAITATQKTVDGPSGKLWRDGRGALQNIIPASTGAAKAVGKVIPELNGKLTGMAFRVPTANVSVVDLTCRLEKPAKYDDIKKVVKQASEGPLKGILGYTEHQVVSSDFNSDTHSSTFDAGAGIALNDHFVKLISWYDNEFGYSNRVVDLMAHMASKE

[8] = molecular target: Latent membrane protein 1 (Human herpesvirus 4 (strain B95-8), UniProt P03230); assay: LMP1 TES1 pathway selectivity over dsRED control – imaging, HEK293T, dual-color eGFP/dsRED, cherry-picks, selectivity assay for LMP1 NF-kB inhibitor project, dose response (AID 588398); type: functional, cell-based
Latent membrane protein 1, sequence (P03230 whole entry): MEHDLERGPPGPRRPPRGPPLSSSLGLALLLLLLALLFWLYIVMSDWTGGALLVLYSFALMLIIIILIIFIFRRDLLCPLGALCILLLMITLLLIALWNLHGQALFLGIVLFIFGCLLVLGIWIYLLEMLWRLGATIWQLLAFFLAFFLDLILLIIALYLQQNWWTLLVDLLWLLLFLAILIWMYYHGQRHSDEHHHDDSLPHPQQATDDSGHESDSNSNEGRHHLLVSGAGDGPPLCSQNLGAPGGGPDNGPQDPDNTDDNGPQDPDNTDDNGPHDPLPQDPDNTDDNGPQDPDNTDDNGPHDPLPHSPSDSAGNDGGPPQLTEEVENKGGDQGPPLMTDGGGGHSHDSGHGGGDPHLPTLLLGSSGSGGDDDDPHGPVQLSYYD

HEK293 = assay: EBV LMP1 TES2 canonical NF-kB signalling blockers – cell-based, HEK293, luciferase, cherry-pick, dose response (AID 588343); type: functional; conditions: Homo sapiens
[9] = loss of viability in HepG2 cells – cell-based, CellTiter-Glo, cherry-picked, cytotoxicity control for Shn3 inhibitor project, dose response (AID 624134); type: functional
[10] = reduction of Shn3 3'UTR-driven luciferase in osteoblasts – cell-based, Clone20 osteoblasts, firefly luciferase, cherry-picked, dose response (AID 624132); type: functional;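 note: firefly luciferase luminescence from reporter carrying the Shn3 3'UTR in osteoblasts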
INS1 = assay: INS-1E survival protection against cytokine death – cell-based, luminescence, retest, dose response (AID 449756); type: functional; conditions: Rattus norvegicus;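 note: cell death triggered by IL-1 beta plus TNF-alpha plus IFN-gamma mixture; protective hits raise ATP signal compared with cytokine alone wells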
[11] = non-specific 3'UTR reporter inhibition in Clone20-Shn3RL – cell-based, Renilla luciferase, cherry-picked, counter-screen for Shn3 inhibitor project, dose response (AID 624133); type: functional
[12] = molecular target: T6, Sentrin-specific protease 8 (Homo sapiens, UniProt Q96LD8); assay: inhibition of human SENP8 cleavage activity – biochemical, luminescence, SAR follow-up (AID 504501); type: functional
T6 sequence (Q96LD8 whole entry): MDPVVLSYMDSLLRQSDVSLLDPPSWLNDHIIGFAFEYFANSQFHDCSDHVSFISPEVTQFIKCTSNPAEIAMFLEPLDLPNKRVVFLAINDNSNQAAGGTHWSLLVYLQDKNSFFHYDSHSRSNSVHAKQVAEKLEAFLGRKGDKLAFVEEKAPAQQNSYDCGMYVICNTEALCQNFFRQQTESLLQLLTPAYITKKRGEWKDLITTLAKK

[13] = molecular target: T7, Sentrin-specific protease 7 (Homo sapiens, UniProt Q9BQF6); assay: inhibition of human SENP7 cleavage activity – biochemical, luminescence, SAR follow-up (AID 504497); type: functional
T7 sequence (Q9BQF6 whole entry): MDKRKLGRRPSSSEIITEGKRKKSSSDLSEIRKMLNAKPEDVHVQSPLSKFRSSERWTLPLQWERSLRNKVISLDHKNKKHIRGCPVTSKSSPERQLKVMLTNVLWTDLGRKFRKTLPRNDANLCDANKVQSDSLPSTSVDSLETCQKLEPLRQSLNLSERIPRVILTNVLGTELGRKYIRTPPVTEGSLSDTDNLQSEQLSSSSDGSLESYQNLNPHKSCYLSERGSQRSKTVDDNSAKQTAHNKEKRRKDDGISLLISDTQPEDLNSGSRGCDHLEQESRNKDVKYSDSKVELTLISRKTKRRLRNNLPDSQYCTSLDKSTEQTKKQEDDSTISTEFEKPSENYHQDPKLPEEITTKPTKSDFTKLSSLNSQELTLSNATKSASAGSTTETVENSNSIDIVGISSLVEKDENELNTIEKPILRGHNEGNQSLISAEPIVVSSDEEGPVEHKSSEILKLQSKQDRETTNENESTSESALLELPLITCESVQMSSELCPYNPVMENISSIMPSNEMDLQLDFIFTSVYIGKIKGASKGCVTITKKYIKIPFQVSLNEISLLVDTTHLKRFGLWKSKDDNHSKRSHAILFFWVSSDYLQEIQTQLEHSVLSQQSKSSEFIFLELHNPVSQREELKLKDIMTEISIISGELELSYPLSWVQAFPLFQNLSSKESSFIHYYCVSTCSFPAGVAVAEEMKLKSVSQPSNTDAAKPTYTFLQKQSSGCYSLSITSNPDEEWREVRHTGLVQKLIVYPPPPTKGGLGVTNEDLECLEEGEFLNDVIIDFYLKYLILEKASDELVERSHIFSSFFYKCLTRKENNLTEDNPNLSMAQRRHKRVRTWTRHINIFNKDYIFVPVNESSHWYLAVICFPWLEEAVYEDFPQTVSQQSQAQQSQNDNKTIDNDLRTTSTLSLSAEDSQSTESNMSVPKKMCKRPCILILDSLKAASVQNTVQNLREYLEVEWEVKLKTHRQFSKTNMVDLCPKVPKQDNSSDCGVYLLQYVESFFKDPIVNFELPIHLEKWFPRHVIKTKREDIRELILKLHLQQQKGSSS

Caspase-3 = molecular target: T8, Caspase-3 (Homo sapiens, UniProt P42574); assay: SAR Analysis of small molecule inhibitors of Sentrin-specific proteases (SENPs) using a Caspase-3 Selectivity assay. [Related pubchem assays (depositor defined):AID2540, AID2599, AID434973, AID489001]; type: functional
T8 sequence (P42574 whole entry): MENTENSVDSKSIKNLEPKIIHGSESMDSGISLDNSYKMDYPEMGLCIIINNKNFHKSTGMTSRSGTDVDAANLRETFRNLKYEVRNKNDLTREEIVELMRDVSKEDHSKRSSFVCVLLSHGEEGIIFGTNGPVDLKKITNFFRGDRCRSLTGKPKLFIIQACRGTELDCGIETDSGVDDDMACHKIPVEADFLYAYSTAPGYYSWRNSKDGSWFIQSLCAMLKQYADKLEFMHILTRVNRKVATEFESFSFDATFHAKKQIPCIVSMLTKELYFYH

[14] = molecular target: T9, Sentrin-specific protease 6 (Homo sapiens, UniProt Q9GZR1); assay: SAR Analysis of small molecule inhibitors of Sentrin-specific protease 6 (SENP6) using a Luminescent assay. [Related pubchem assays (depositor defined):AID2582, AID2599]; type: functional
T9 sequence (Q9GZR1 whole entry): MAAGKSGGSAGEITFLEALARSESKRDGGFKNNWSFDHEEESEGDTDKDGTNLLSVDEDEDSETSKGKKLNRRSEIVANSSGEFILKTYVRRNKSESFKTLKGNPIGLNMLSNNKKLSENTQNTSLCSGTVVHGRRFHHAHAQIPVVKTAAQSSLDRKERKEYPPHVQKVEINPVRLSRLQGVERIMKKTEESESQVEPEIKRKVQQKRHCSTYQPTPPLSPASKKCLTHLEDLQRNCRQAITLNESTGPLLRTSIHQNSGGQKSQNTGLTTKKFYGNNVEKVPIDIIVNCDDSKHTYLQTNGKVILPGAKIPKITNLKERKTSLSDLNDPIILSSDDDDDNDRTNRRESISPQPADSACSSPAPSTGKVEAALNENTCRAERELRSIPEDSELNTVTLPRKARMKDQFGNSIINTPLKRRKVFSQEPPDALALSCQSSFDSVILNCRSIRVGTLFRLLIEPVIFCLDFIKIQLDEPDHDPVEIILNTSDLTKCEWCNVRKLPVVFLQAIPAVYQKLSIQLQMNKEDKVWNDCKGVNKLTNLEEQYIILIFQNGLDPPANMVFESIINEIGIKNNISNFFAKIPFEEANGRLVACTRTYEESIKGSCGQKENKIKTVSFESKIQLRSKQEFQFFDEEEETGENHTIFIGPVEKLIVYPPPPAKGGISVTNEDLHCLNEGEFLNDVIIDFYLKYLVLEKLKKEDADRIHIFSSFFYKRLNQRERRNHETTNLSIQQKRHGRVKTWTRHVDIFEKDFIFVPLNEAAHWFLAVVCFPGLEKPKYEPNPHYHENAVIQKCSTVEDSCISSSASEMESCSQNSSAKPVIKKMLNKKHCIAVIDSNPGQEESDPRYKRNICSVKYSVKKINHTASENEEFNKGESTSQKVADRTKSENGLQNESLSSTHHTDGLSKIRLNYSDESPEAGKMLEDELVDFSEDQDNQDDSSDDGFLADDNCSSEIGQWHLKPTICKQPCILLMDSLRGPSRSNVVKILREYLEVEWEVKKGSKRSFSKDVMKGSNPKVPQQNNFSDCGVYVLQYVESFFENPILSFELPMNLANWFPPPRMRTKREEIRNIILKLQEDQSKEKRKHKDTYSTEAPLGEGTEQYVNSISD

[15] = molecular target: T10, Endoribonuclease toxin MazF (Escherichia coli K-12, UniProt P0AE70); assay: substrate-only fluorescence increase artefacts – biochemical, single-stranded RNase substrate, counter-screen for MazEF activator project, dose response (AID 588502); type: functional
T10 sequence (P0AE70 whole entry): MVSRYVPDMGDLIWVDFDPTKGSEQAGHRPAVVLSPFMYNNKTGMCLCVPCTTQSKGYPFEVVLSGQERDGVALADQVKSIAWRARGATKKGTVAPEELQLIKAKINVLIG

Beta Lactamase = Beta Lactamase (Pseudomonas aeruginosa, UniProt Q932Y6); assay: BLA reporter interference, concentration series – BLA reporter cells, FRET fluorescence, artefact control for TLR9-MyD88 binding inhibitor project, dose response (AID 588341); type: cell-based;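 note: cell based assay in CHO-K1 cells stably expressing beta-lactamase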
Beta Lactamase, sequence (Q932Y6 whole entry): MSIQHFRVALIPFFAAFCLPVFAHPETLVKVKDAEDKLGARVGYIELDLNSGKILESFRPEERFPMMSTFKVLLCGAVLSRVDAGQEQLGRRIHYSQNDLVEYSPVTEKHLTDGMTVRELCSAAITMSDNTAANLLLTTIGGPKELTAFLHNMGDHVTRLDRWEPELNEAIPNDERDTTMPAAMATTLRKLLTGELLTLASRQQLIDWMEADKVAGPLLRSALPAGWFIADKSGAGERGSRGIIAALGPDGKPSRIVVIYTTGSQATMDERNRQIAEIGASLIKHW

[16] = molecular target: T10, Endoribonuclease toxin MazF; assay: activation of MazEF endoribonuclease cleavage – biochemical, fluorescence, single-stranded RNA substrate, uHTS hits, dose response (AID 588481); type: functional
CHO = CHO cell viability loss, potency – luminescence, cytotoxicity control for TLR9-MyD88 binding inhibitor project, dose response (AID 588339); type: functional, cell-based, hamster; conditions: Cricetulus griseus;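 note: CHO cells stably coexpressing TLR9 and MyD88 fusions from primary screen; compound exposure lasted 48 hours before viability readout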

CCCCCc1nnc(NC(=O)Cc2cccs2)s1
IC50 [1]: 6.28 µM (active) | IC50 (Bcl-2-like protein 10): 12.5 µM (active) | IC50 [2]: 21.4 µM (active) | IC50 [3]: 3.73 µM (active) | IC50 (Estrogen receptor beta [4]): < 1.56 µM (active) | IC50 [5]: 17.2 µM (active) | IC50 (Estrogen receptor beta [6]): > 50 µM (not active) | IC50 [7]: 98.6 µM (active)

CC(=O)NC(c1cccs1)c1cc(F)c2cccnc2c1O (stereo unspecified)
AC50 [8]: 13 µM (active) | AC50 (HEK293): 7.74 µM (active) | AC50 [9]: 2.94 µM (active) | AC50 [10]: 1.67 µM (active) | AC50 (INS1): 1.58 µM (active) | AC50 [11]: 5.16 µM (active)

CCCCc1ccc2nc(NC(=O)c3cc(Br)cs3)sc2c1
IC50 [12]: > 99 µM (inactive) | IC50 [13]: > 99 µM (inactive) | IC50 (Caspase-3): > 99 µM (inactive) | IC50 [14]: > 99 µM (inactive)

COc1cc(OC)cc(-c2nc(/C=C/c3ccccc3)no2)c1
IC50 [12]: > 99 µM (inactive) | IC50 [13]: > 99 µM (inactive) | IC50 (Caspase-3): > 99 µM (inactive) | IC50 [14]: > 99 µM (inactive)

CC1C/C(=C/c2cccn2C)C(=O)/C(=C/c2cccn2C)C1 (stereo unspecified)
EC50 [15]: > 99 µM (inactive) | IC50 (Beta Lactamase): 4.39 µM (active) | EC50 [16]: > 99 µM (inactive) | IC50 (CHO): > 49.7 µM (inactive)
